Read-outs that look alike come from different tables or passages of the source.
Tests used:
CEM-SS cells [1] = assay: CEM-SS macromolecule synthesis (tritiated precursor incorporation); assay type: cell-based; conditions: for Thymidine incorportation (CEM-SS) TC50: DNA synthesis; for Uridine incorporation (CEM-SS) TC50: RNA synthesis; for Leucine Incorporation (CEM-SS) TC50: protein synthesis
Method: Cellular macromolecule synthesis was evaluated using tritiated precursor incorporation assays. CEM-SS cells (2.5×10^3 cells/well) were cultured in the presence or absence of test compound for 7 days at 37 C, 5% CO2 in a 96-well microtiter plate. On day 6 of the incubation, 1 uCi of [methyl-3H]-thymidine for DNA synthesis, [5-3H]-uridine for RNA synthesis, or [3,4,5-3H]-leucine for protein synthesis was added to compound-treated cells, and the plate was further incubated for 16 hours. The cells were transferred to a glass fiber filtermat using an Inotech cell harvester. The filtermats were washed with distilled water then sealed in a bag with scintillation fluid. Incorporated radioactivity was measured using a Wallac scintillation counter.

CEM-SS cells [2] = assay: CEM-SS cytotoxicity (XTT); conditions: 7 days
Method: One day prior to assay initiation, cells were split 1:2 to assure exponential growth at the time of the assay. Cells were counted using a hemocytometer, and viability measured by Trypan Blue dye exclusion. […] CEM-SS cells were resuspended at 5×10^4 cells/mL in medium, and 100 μL of the cell suspension was aliquoted to individual wells of a 96-well microtiter plate containing 100 μL 2× concentration test compound. Plates were incubated for 7 days at 37° C., 5% CO2 until cytotoxicity evaluation.
Test compound-induced cytotoxicity was evaluated by monitoring the reduction of the tetrazolium dye XTT to a soluble formazan product in microtiter plates containing compound-treated cells in the absence of HIV-1 virus. XTT solution was prepared at 0.15 mg/mL in phosphate buffered saline. Phenazine methosulfate (PMS) solution was prepared at 0.15 mg/mL in phosphate buffered saline. A XTT/PMS stock solution was prepared immediately before use by combining 40 uL of PMS per mL of XTT solution. Fifty microliters of the XTT/PMS stock was added to each well of the microtiter plate, the plate was incubated for four hours at 37° C., and the amount of soluble formazan product was measured as the absorbance at 450 nm. Cell viability is directly proportional to the amount of soluble formazan product formed.

[3] = Plasma protein binding by equilibrium dialysis, human plasma; assay type: in vitro ADME; conditions: human plasma, 5 μM, fraction unbound; read-out: Plasma Protein Binding Fu ± SD
Method in brief: (§1)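 Compound at 5 μM in species-specific plasma (0.5% DMSO) was dialysed against plasma-free buffer for 2 h at 37 °C to equilibrium. Compound on each side of the membrane was quantified by LC-MS/MS.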

[4] = Metabolic stability in rat liver microsomes; assay type: in vitro ADME
Excerpt: Metabolic stability of test compounds was studied in rat liver microsomes.

hERG = hERG (Homo sapiens (Human), UniProt Q12809); assay: hERG current (IKr) in HEK-293 cells, whole-cell patch clamp; assay type: cell-based; conditions: 0.1 Hz; for IC50: hERG current in HEK-293 cells, whole-cell patch clamp, read-out: IC50 (Block of hERG at 0.1 Hz); for inhibition at 10 µM / inhibition at 30 µM / inhibition at 100 µM: human, HEK-293 cells stably expressing hERG, HEK-293 cells, read-out: Mean % inhibition ± SEM (Block of hERG at 0.1 Hz)
Method: Currents were measured using the whole-cell variant of the patch clamp method. Glass pipettes were produced with tip openings of […] for K current recordings. Pipette tip resistance was approximately 1.0 to 2.0 MΩ when filled with K internal solutions (130 mM KCl, 5 mM MgCl2, 10 mM HEPES, 5 mM EGTA, 5 mM ATP-Na2, pH7.2). An Axopatch 1-B amplifier (Axon Instruments, Foster City, Calif.) was used for whole-cell voltage clamping. Voltage clamp pulses were controlled by pClamp software (ver 9.2, Axon Instruments).
After rupture of the cell membrane, current kinetics and amplitudes were allowed to stabilize as the cell was dialyzed with internal solution and paced at 0.1 Hz (−75 mV; 500 msec, +10 mV; 500 msec, −40 mV; typically 2-4 minutes). Currents were considered stable if the currents elicited by a series of voltage pulses given at 0.1 Hz were superimposed. Peak hERG current was measured as the maximum outward deflection of the tail current elicited upon return to −40 mV.
Data are presented in Table 19 as the percent reduction of current amplitude. This was measured as current reduction after a steady-state effect had been reached in the presence of drug relative to current amplitude before drug was introduced (control). Each cell served as its own control.

in vitro = in vitro ADME; conditions: dog, microsomes
Excerpt: Metabolic stability of test compounds was studied in dog liver microsomes.

[5] = test system: Sprague-Dawley rat hepatocytes; assay: Metabolic stability in Sprague-Dawley rat hepatocytes; assay type: in vitro ADME; conditions: 0.1 uM
human plasma proteins = assay: Plasma protein binding by equilibrium dialysis, human plasma; assay type: in vitro ADME; conditions: human plasma, 5 μM, fraction unbound
Method in brief: as §1

[6] = test system: human liver microsomal proteins; assay: Microsomal protein binding by equilibrium dialysis; assay type: in vitro ADME; conditions: human liver microsomes, 3 μM, fraction unbound
Method in brief: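 Compound at 3 μM final in buffer with or without human liver microsomes, dialysed to equilibrium at 37 °C. Both sides quantified by LC-MS/MS to derive fraction unbound (Fu).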

beagle dog hepatocytes = assay: Metabolic stability in beagle dog hepatocytes; assay type: in vitro ADME; conditions: 0.1 uM
PBMCs = assay: Toxicity in PBMCs cultured without virus (XTT)
Method: Fresh human peripheral blood mononuclear cells (PBMCs) obtained from a commercial source were purified following centrifugation using a Ficoll-Hypaque density gradient. Viable cells were induced to proliferate in the presence of PHA-P and recombinant human IL-2 for 72 hours. […] Cell supernatant containing HIV-1 viral was incubated for 90 minutes at 37° C. with a reaction mixture containing EGTA, Triton X-100, Tris (pH 7.4), DTT, MgCl2, poly rA, oligo dT, and tritiated thymidine triphosphate (TTP). Incorporation of TTP into DNA was monitored by spotting the reaction mixture onto a DEAE filter mat, followed by washes with 5% phosphate buffer, distilled water, and 70% ethanol, and subsequent drying of the mat. […] TI was calculated as TC50/EC50.

dog plasma proteins = assay: Plasma protein binding by equilibrium dialysis, dog plasma; assay type: in vitro ADME; conditions: fraction unbound
Method: (§2) In assays to estimate binding of test compounds to plasma proteins, test compound solutions (5 μM) are prepared in buffer and species-specific plasma (final DMSO concentration 0.5%). The plasma-containing solution is added to one side of the membrane of an equilibrium dialysis system, and the plasma-free is added to the other side. Dialysis was allowed to reach equilibrium by incubation for two hours at 37° C. The concentration of compound on both sides of the membrane was measured using LC-MS/MS.

CYP2C9 = CYP2C9 (Homo sapiens (Human), UniProt P11712); conditions: microsomes
rat plasma proteins = assay: Plasma protein binding by equilibrium dialysis, rat plasma; assay type: in vitro ADME; conditions: fraction unbound
Method: as §2

[7] = seven days, absence of virus, XTT

Sequence of hERG (Q12809 whole entry): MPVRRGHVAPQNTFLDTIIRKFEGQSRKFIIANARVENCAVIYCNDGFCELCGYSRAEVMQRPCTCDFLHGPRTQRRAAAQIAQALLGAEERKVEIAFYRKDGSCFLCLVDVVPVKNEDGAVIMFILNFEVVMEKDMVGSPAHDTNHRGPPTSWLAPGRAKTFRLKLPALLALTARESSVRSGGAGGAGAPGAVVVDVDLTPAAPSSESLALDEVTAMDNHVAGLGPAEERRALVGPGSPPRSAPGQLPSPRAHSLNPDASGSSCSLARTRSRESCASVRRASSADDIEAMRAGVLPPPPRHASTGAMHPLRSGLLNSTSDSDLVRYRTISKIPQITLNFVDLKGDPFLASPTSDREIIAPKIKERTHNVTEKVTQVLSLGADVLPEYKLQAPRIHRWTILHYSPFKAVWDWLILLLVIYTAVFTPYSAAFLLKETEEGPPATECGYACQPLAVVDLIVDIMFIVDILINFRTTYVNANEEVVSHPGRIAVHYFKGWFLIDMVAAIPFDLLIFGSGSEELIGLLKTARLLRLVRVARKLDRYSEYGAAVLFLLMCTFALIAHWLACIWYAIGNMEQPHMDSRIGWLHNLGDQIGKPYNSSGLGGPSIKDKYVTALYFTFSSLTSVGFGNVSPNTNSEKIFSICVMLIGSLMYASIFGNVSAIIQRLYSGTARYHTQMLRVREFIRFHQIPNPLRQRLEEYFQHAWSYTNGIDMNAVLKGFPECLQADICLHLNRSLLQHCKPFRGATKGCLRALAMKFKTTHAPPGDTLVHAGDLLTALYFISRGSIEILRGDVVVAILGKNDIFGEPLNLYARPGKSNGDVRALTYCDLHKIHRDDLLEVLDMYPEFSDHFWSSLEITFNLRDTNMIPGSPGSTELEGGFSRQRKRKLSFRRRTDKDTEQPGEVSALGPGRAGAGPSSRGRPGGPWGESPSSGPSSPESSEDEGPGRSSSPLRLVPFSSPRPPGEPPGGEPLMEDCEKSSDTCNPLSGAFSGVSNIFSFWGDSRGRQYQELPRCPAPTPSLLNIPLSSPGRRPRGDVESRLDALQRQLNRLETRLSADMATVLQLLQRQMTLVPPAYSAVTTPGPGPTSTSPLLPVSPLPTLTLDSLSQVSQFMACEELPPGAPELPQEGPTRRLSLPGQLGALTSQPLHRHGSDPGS
Sequence of CYP2C9 (P11712 whole entry): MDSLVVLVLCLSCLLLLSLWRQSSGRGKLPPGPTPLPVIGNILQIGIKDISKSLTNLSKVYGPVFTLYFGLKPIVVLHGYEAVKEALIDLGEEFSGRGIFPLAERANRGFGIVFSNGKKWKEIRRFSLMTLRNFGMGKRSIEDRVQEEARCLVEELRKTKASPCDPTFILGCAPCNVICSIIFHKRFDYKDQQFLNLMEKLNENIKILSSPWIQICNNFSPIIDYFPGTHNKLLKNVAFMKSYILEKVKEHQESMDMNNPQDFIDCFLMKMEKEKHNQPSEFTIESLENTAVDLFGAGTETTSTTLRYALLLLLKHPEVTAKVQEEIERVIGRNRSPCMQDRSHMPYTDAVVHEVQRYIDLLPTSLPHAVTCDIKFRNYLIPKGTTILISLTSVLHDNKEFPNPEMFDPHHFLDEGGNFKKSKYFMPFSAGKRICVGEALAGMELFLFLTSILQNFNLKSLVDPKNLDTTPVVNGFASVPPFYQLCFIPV

| SMILES | Thymidine incorportation (CEM-SS) TC50 (CEM-SS cells [1]) [µM] | Uridine incorporation (CEM-SS) TC50 (CEM-SS cells [1]) [µM] | Leucine Incorporation (CEM-SS) TC50 (CEM-SS cells [1]) [µM] | XTT (CEM-SS) TC50 (CEM-SS cells [2]) [µM] | fraction unbound at 2 h, 5 μM [3] | CLint ± SEM [5] [μL/min/10^6 cells] | t1/2 [5] [min] | Plasma Protein Binding Fu ± SD (human plasma proteins) | Microsomal Protein Binding Fu ± SD [6] | CLint ± SEM (beagle dog hepatocytes) [μL/min/10^6 cells] | t1/2 (beagle dog hepatocytes) [min] | PBMC TC50 ± SD (PBMCs; [7]) [µM] | further results |
| --- | --- | --- | --- | --- | --- | --- | --- | --- | --- | --- | --- | --- | --- |
| COC(=O)N[C@H](C(=O)N[C@@H](Cc1ccccc1)[C@@H](O)CN(Cc1ccc(-c2ccccn2)cc1)NC(=O)[C@@H](NC(=O)OC)C(C)(C)C)C(C)(C)C [Atazanavir, reference compound] | 288.3 | 281.4 | 259.6 | 302.1 | 0.106 ± 5.25e-05 |  |  |  |  |  |  |  | half-life [4]: 24.2 min; IC50 (hERG): 63.9 µM; inhibition at 10 µM (hERG): 15.6 ± 1.9%; inhibition at 30 µM (hERG): 32.5 ± 3.7%; inhibition at 100 µM (hERG): 60.5 ± 2.5%; half-life (in vitro): 51.8 min; microsomal CLint (in vitro): 26.8 µL/min/mg |
| CC(C)CN(C[C@@H](O)[C@H](Cc1ccccc1)NC(=O)O[C@H]1CO[C@H]2OCC[C@H]21)S(=O)(=O)c1ccc(N)cc1 [Darunavir, reference compound] | 223.2 | >400 | 285.8 | 338.6 | 0.144 ± 0.0051 |  |  |  |  |  |  |  |  |
| COCCOCCOCCOc1ccc(C[C@H](NC(=O)O[C@H]2CO[C@H]3OCC[C@H]32)C(O)CN(CC(C)C)S(=O)(=O)c2ccc(N)cc2)cc1 (some centres unmarked) [mPEG3-O-Darunavir] | 262.9 | >400 | >400 | >400 |  | 28.4 ± 0.00359 | 48.8 | 0.274 ± 0.0194 | 0.936 ± 0.0109 | 15.5 ± 0.000361 | 89.5 | >200 |  |
| COCCOCCOCCOCCOCCNc1ccc(S(=O)(=O)N(CC(C)C)CC(O)[C@H](Cc2ccccc2)NC(=O)O[C@H]2CO[C@H]3OCC[C@H]32)cc1 (some centres unmarked) [mPEG5-N-Darunavir] |  |  |  |  |  |  |  | 0.338 ± 0.0368 | 0.864 ± 0.011 |  |  |  |  |
| COCCOCCOCCOCCOCCOc1ccc(C[C@H](NC(=O)O[C@H]2CO[C@H]3OCC[C@H]32)C(O)CN(CC(C)C)S(=O)(=O)c2ccc(N)cc2)cc1 (some centres unmarked) [mPEG5-O-Darunavir] | 165.7 | >400 | >400 | >400 |  | 37.0 ± 0.00425 | 37.5 | 0.448 ± 0.0195 | 0.804 ± 0.253 | 4.93 ± 0.000253 | 281 | >200 |  |
| COCCOCCOCCOCCOCCOCCOCCNc1ccc(S(=O)(=O)N(CC(C)C)CC(O)[C@H](Cc2ccccc2)NC(=O)O[C@H]2CO[C@H]3OCC[C@H]32)cc1 (some centres unmarked) [mPEG7-N-Darunavir] |  |  |  |  |  |  |  | 0.364 ± 0.0298 | 0.973 ± 0.0139 |  |  | >200 |  |
| COCCOC(=O)NC(C(=O)NC(Cc1ccccc1)C(O)CN(Cc1ccc(-c2ccccn2)cc1)NC(=O)C(NC(=O)OC)C(C)(C)C)C(C)(C)C (centres unmarked) [mono-mPEG1-Atazanavir] |  |  |  |  |  | 82.5 ± 0.0100 | 16.8 |  |  | 31.1 ± 0.000512 | 44.5 |  | Dog Plasma Protein Binding Fu ± SD (dog plasma proteins): 0.208 ± 0.0317; IC50 (CYP2C9): > 25 µM; Rat Plasma Protein Binding Fu ± SD (rat plasma proteins): 0.0793 ± 0.00541; PBMC TC50 ± SD (PBMCs): 135.9 µM |
| COCCOCCOCCOC(=O)NC(C(=O)NC(Cc1ccccc1)C(O)CN(Cc1ccc(-c2ccccn2)cc1)NC(=O)C(NC(=O)OC)C(C)(C)C)C(C)(C)C (centres unmarked) [mono-mPEG3-Atazanavir, {1-[N′-[2-Hydroxy-3-(2-{2-[2-(2-methoxy-ethoxy)-ethoxy]-ethoxycarbonylamino}-3,3-dimethyl-butyrylamino)-4-phenyl-butyl]-N′-(4-pyridin-2-yl-benzyl)-hydrazinocarbonyl]-2,2-dimethyl-propyl}-carbamic Acid Methyl Ester] | 396.2 | 396.6 | >400 | >400 | 0.217 ± 0.000495 |  |  |  |  |  |  |  | half-life [4]: 26.8 min; IC50 (hERG): 88.3 µM; inhibition at 10 µM (hERG): 5.4 ± 0.6%; inhibition at 30 µM (hERG): 23.7 ± 3.7%; inhibition at 100 µM (hERG): 53.1 ± 2.6%; half-life (in vitro): 7.42 min; microsomal CLint (in vitro): 187 µL/min/mg |
| COCCOCCOCCOCCOCCOCCOCCOC(=O)NC(C(=O)NC(Cc1ccccc1)C(O)CN(Cc1ccc(-c2ccccn2)cc1)NC(=O)C(NC(=O)OC)C(C)(C)C)C(C)(C)C (centres unmarked) [mono-mPEG7-Atazanavir] |  |  |  |  |  |  |  |  |  |  |  |  | Dog Plasma Protein Binding Fu ± SD (dog plasma proteins): 0.306 ± 0.0478; IC50 (CYP2C9): > 25 µM; Rat Plasma Protein Binding Fu ± SD (rat plasma proteins): 0.255 ± 0.0778; PBMC TC50 ± SD (PBMCs): 187.2 µM |
